Tests used:
Experiment in all cases: relative viability (nuclei count vs DMSO), 5 days (fraction); higher = more cells survive
[1] = compound: C1=CC=C(C(=C1)C2=CC=C(C=C2)C3=CSC4=C3C(=C(C(=O)N4)C#N)O)O + O=C(c1cc(Cc2n[nH]c(=O)c3ccccc23)ccc1F)N1CCN(C(=O)C2CC2)CC1 [Olaparib] (partner 8 µM)
Summary of the method: (§1)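 Lung cancer cell lines, seeded in 1536-well plates, were treated the following day by pin tool with a single drug or with five library-drug doses (not always all listed) in √10 steps on top of a fixed anchor-drug dose. Cells were fixed and nuclei stained in one step after 5 days, and nuclei were counted. Relative viability is the nuclei count for treated wells divided by that for vehicle wells, reported as medians of duplicate plates.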

TGX 221 + Pemetrexed = compound: CC1=CN2C(=O)C=C(N=C2C(=C1)C(C)NC3=CC=CC=C3)N4CCOCC4 [TGX 221] + Nc1nc2[nH]cc(CCc3ccc(C(=O)N[C@@H](CCC(=O)O)C(=O)O)cc3)c2c(=O)[nH]1 [Pemetrexed] (partner 0.2 µM)
Summary of the method: as §1

[2] = compound: O=C(CCCCCCNC(=O)c1cnc(N(c2ccccc2)c2ccccc2)nc1)NO [Ricolinostat] + CC(=O)Nc1cccc(-n2c(=O)n(C3CC3)c(=O)c3c(Nc4ccc(I)cc4F)n(C)c(=O)c(C)c32)c1 [Trametinib] (partner 0.02 µM)
Summary of the method: as §1

TGX 221 + Pictilisib = compound: CC1=CN2C(=O)C=C(N=C2C(=C1)C(C)NC3=CC=CC=C3)N4CCOCC4 [TGX 221] + CS(=O)(=O)N1CCN(Cc2cc3nc(-c4cccc5[nH]ncc45)nc(N4CCOCC4)c3s2)CC1 [Pictilisib] (partner 1 µM)
Summary of the method: as §1

Row | Cell Line | relative viability ([1]; first compound 0.08 µM) | relative viability ([1]; first compound 0.253 µM) | relative viability ([1]; first compound 0.8 µM) | relative viability ([1]; first compound 2.53 µM) | relative viability ([1]; first compound 8 µM) | relative viability (TGX 221 + Pemetrexed; first compound 0.08 µM) | relative viability (TGX 221 + Pemetrexed; first compound 0.253 µM) | relative viability (TGX 221 + Pemetrexed; first compound 0.8 µM) | relative viability (TGX 221 + Pemetrexed; first compound 2.53 µM) | relative viability (TGX 221 + Pemetrexed; first compound 8 µM) | relative viability ([2]; first compound 0.08 µM) | relative viability ([2]; first compound 0.253 µM) | relative viability ([2]; first compound 0.8 µM) | relative viability ([2]; first compound 2.53 µM) | relative viability (TGX 221 + Pictilisib; first compound 0.08 µM) | relative viability (TGX 221 + Pictilisib; first compound 0.253 µM) | relative viability (TGX 221 + Pictilisib; first compound 0.8 µM) | relative viability (TGX 221 + Pictilisib; first compound 2.53 µM) | relative viability (TGX 221 + Pictilisib; first compound 8 µM)
1 | A-427 | 0.781 | 0.71 | 0.849 | 0.712 | 0.793 | 0.992 | 0.987 | 0.963 | 0.989 | 0.953 | 0.652 | 0.776 | 0.723 | 0.654 | 0.613 | 0.7 | 0.679 | 0.676 | 0.676
2 | NCI-H1975 | 0.692 | 0.901 | 0.796 | 0.893 | 0.535 | 0.306 | 0.26 | 0.293 | 0.297 | 0.273 | 0.374 | 0.368 | 0.33 | 0.326 | 0.282 | 0.289 | 0.271 | 0.229 | 0.285
3 | HCC-827 | 0.739 | 0.65 | 0.59 | 0.662 | 0.622 | 0.264 | 0.294 | 0.272 | 0.248 | 0.249 | 0.49 | 0.527 | 0.581 | 0.584 | 1.02 | 0.979 | 1.09 | 0.896 | 0.732
4 | UMC-11 | – | 0.396 | 0.435 | 0.425 | 0.417 | 0.677 | 0.717 | 0.788 | 0.815 | 0.823 | 0.644 | 0.684 | 0.623 | 0.265 | 0.742 | 0.783 | 0.787 | 0.723 | 0.831
5 | NCI-H3122 | 0.715 | 0.675 | 0.573 | 0.645 | 0.45 | 0.198 | 0.203 | 0.201 | 0.206 | 0.207 | 0.221 | 0.256 | 0.248 | 0.313 | 0.619 | 0.581 | 0.635 | 0.574 | 0.581
6 | LXF-289 | 1.1 | 1.24 | 0.958 | 1.01 | 1.02 | 0.926 | 0.918 | 0.897 | 0.937 | 0.961 | 0.675 | 0.638 | 0.688 | 0.629 | 0.789 | 0.751 | 0.711 | 0.746 | 0.729
7 | NCI-H647 | – | 0.648 | 0.677 | 0.776 | 0.421 | 0.15 | 0.162 | 0.18 | 0.163 | 0.146 | 0.372 | 0.464 | 0.51 | 0.564 | 0.407 | 0.404 | 0.406 | 0.37 | 0.412
8 | COR-L23 | 0.318 | 0.343 | 0.32 | 0.365 | 0.322 | 0.22 | 0.198 | 0.186 | 0.218 | 0.189 | 0.485 | 0.582 | 0.625 | 0.49 | 0.746 | 0.713 | 0.757 | 0.771 | 0.892

Reference: the supplement of paper PMC10307832
